Experimental data published in publication PMC10794144, “A novel antibiotic class targeting the lipopolysaccharide transporter” (Nature, 2024).
Converted amounts (≈) assume the structure as drawn. Read-outs that look alike come from different tables or passages of the source.

What was measured:
GSK-3A = target: T1, GSK-3A (Homo sapiens, UniProt P49840); assay: Off-target screening (CEREP); assay type: biochemical; settings: read-out: percent inhibition
T1 construct: purchased Eurofins CEREP SA
Procedure: (§1) Supplementary Table 1 │ Off-target activity screening f or MCP compou nds […]
(§2) The assays given in the table above were conducted at Eurofins CEREP S A (Celle-Lévescault, France) and were run as single point measurements in duplicates in the presence of 10 µ M of the test compound and reported as percent inhibition of the radioligand signal or control enzymatic activity. n.d., not

Phosphodiesterase 3B = target: T2, Phosphodiesterase 3B (Homo sapiens, UniProt Q13370); assay: Off-target screening (CEREP); assay type: biochemical; settings: read-out: percent inhibition
T2 construct: purchased Eurofins CEREP SA
T2 sequence (Q13370 whole entry): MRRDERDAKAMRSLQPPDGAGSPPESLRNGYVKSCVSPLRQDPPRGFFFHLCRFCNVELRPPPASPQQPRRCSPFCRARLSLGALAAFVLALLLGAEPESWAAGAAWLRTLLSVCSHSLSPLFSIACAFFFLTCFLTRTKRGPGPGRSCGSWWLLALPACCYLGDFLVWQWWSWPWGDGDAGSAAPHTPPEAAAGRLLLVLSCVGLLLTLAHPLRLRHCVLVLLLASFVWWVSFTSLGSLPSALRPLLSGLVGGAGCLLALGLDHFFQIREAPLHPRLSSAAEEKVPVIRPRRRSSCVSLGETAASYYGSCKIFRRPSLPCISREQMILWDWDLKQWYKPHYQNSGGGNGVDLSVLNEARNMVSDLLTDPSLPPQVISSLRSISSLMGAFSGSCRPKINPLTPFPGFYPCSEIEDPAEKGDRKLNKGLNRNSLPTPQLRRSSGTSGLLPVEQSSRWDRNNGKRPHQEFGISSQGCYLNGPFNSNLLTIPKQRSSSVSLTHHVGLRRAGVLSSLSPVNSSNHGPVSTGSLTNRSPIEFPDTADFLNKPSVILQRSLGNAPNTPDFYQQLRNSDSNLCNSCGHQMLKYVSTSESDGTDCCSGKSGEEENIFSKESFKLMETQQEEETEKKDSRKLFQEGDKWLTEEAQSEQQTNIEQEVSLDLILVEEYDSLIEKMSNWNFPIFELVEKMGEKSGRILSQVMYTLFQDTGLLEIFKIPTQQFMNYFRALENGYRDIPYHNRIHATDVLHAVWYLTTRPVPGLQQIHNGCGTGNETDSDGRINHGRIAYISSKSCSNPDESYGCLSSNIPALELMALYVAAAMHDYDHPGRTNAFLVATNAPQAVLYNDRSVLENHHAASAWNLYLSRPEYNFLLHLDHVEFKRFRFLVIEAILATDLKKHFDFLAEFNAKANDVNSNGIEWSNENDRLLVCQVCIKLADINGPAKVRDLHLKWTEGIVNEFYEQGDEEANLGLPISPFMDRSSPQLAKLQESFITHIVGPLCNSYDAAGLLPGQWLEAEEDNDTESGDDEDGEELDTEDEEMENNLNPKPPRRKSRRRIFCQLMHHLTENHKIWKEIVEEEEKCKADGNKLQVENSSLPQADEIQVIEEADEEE
Procedure: as §1, §2

ZAP70 kinase = target: T3, ZAP70 kinase (Homo sapiens, UniProt P43403); assay: Off-target screening (CEREP); assay type: biochemical; settings: read-out: percent inhibition
T3 construct: purchased Eurofins CEREP SA
T3 sequence (P43403 1-619): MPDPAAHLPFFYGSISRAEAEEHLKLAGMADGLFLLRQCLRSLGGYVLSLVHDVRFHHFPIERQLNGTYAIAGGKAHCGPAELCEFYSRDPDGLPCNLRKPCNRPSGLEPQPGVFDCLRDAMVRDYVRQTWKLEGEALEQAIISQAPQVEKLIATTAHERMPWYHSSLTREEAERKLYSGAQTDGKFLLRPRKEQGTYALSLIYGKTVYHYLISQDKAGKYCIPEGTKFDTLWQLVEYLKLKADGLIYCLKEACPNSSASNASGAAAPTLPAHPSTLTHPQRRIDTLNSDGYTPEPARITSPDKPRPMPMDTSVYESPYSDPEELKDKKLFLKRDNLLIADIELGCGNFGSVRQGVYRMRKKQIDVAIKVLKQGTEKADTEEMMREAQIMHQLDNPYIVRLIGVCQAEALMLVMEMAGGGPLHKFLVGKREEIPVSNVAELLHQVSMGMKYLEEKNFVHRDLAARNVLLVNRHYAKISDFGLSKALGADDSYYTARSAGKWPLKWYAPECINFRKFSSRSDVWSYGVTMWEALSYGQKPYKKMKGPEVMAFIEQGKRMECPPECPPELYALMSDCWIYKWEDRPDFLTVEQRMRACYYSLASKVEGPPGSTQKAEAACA
Procedure: as §1, §2

hERG = hERG (Homo sapiens, UniProt Q12809); assay: hERG
Sequence of hERG (Q12809 whole entry): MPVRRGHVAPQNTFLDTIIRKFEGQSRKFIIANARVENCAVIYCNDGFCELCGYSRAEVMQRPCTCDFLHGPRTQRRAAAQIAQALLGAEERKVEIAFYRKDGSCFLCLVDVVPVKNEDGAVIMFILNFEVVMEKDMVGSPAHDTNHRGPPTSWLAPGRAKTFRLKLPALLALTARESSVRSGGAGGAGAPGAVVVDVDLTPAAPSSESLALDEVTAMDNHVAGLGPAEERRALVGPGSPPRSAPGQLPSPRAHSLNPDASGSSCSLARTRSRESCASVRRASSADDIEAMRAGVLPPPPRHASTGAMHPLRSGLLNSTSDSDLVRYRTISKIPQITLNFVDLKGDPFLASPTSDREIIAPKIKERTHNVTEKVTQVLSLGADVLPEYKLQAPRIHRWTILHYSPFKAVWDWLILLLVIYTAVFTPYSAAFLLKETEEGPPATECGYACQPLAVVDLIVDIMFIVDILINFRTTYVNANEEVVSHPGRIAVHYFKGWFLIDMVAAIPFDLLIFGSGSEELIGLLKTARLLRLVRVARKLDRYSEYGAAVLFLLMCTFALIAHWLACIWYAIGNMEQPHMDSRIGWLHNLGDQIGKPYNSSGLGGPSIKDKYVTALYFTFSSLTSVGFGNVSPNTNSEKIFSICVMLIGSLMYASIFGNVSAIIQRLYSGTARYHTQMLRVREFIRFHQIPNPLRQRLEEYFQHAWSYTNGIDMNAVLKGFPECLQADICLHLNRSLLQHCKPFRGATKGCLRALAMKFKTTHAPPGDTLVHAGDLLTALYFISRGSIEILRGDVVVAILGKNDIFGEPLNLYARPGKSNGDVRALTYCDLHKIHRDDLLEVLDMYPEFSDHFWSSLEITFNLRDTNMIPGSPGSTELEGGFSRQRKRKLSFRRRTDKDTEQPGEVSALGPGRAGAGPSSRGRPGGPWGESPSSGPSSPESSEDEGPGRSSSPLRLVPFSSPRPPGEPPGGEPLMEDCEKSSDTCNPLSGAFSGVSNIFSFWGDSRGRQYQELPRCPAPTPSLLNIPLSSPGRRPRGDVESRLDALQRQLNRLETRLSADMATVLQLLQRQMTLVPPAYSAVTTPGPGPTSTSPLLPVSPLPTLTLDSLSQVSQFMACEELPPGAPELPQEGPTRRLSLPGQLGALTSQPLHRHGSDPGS

P. aeruginosa ATCC 27853 = assay: microbe, parasite or virus in culture; settings: for MIC: Pseudomonas aeruginosa; for RO7223280 MIC 100%: P. aeruginosa ATCC 27853, read at 100%
Procedure: (§3) MIC determinations were performed using the broth microdilution method and in line with CLSI guidelines M07 and M100 (refs. [37],[38]). Bacterial inocula were prepared by diluting a 0.5 McFarland suspension in CAMHB or lysogeny broth (LB) specifically for A. baylyi isolates. […] MIC values of all of the tested antibiotics were read as the lowest compound concentration inhibiting bacterial growth by naked eye or beyond which the OD600 ceased to decrease.

E. coli ATCC 25922 = assay: microbe, parasite or virus in culture; settings: for MIC: Escherichia coli; for RO7223280 MIC 100%: E. coli ATCC 25922, read at 100%
Procedure: as §3

[1] = ATCC27853, CAMHB, mode of at least three replicates (RO7036668 one replicate)

T1 sequence (P49840 whole entry): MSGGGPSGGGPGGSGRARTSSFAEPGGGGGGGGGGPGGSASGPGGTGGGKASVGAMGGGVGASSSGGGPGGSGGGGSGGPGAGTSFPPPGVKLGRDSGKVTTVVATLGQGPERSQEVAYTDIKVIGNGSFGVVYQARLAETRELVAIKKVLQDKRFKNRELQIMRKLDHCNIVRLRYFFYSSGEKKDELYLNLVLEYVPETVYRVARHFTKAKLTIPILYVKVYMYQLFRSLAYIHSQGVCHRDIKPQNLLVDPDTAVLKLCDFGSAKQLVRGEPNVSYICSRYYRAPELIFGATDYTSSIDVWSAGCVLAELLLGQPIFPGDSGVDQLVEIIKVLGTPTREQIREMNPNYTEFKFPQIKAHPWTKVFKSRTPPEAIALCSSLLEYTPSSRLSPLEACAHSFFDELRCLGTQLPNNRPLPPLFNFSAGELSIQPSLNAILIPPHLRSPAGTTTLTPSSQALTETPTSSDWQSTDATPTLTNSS

Structure (SMILES): CN1C(=O)[C@H](CCCCN)NC(=O)[C@H](CCCN)NCc2cccnc2Sc2c(Cl)ccc(-c3ccc(C(=O)O)cc3)c2CNC(=O)[C@@H]1Cc1c[nH]c2ccccc12 [RO7202110]
- inhibition at 10 µM (GSK-3A; 10 µM, duplicates): 22%
- inhibition at 10 µM (Phosphodiesterase 3B; 10 µM, duplicates): 2%
- inhibition at 10 µM (ZAP70 kinase; 10 µM, duplicates): -39%
- IC50 (hERG): > 20 µM
- hERG IC20 (hERG): > 10 µM
- MIC (P. aeruginosa ATCC 27853; [1]): > 64 µg/mL
- MIC (E. coli ATCC 25922; ATCC25922): > 64 µg/mL

Structure (SMILES): C[C@@H](O)[C@H]1C(=O)N2C(C(=O)O)=C(S[C@@H]3CN[C@H](C(=O)N(C)C)C3)[C@H](C)[C@H]12 [meropenem, reference compound]
- MIC (P. aeruginosa ATCC 27853; [1]): 0.5 µg/mL (≈ 1.3 µM)
- MIC (P. aeruginosa ATCC 27853; ATCC27853, read-out: MIC 100%, Study LGC277937, 100%): 0.5 µg/mL (≈ 1.3 µM)
- MIC (P. aeruginosa ATCC 27853; ATCC27853, read-out: MIC 100%, Study LGC279800, 100%): 0.25 µg/mL (≈ 0.652 µM)
- MIC (P. aeruginosa ATCC 27853; ATCC27853, read-out: MIC 100%, Study LGC281440, 100%): 0.25 µg/mL (≈ 0.652 µM)
- MIC (P. aeruginosa ATCC 27853; ATCC27853, read-out: MIC 100%, Study LGC282160, 100%): 0.5 µg/mL (≈ 1.3 µM)
- MIC (P. aeruginosa ATCC 27853; ATCC27853, read-out: MIC 100%, Study LGC282623, 100%): 0.5 µg/mL (≈ 1.3 µM)
- MIC (P. aeruginosa ATCC 27853; ATCC27853, read-out: MIC 100%, Study LGC283932, 100%): 0.5 µg/mL (≈ 1.3 µM)
- MIC (P. aeruginosa ATCC 27853; ATCC27853, read-out: MIC 100%, Study LGC284200, 100%): 0.5 µg/mL (≈ 1.3 µM)
- MIC (P. aeruginosa ATCC 27853; ATCC27853, read-out: MIC 100%, Study LGC284879, 100%): 0.5 µg/mL (≈ 1.3 µM)
- MIC (P. aeruginosa ATCC 27853; ATCC27853, read-out: MIC 100%, Study LGC285582, 100%): 0.25 µg/mL (≈ 0.652 µM)
- MIC (P. aeruginosa ATCC 27853; ATCC27853, read-out: MIC 100%, Study LGC286210, 100%): 0.5 µg/mL (≈ 1.3 µM)
- MIC (P. aeruginosa ATCC 27853; ATCC27853, read-out: MIC 100%, Study LGC293598, 100%): 0.5 µg/mL (≈ 1.3 µM)
- MIC (P. aeruginosa ATCC 27853; ATCC27853, read-out: MIC 100%, Study LGC294355, 100%): 0.5 µg/mL (≈ 1.3 µM)
- MIC (P. aeruginosa ATCC 27853; ATCC27853, read-out: MIC 100%, Study LGC295147, 100%): 0.5 µg/mL (≈ 1.3 µM)
- MIC (P. aeruginosa ATCC 27853; ATCC27853, read-out: MIC 100%, Study LGC296813, 100%): 0.5 µg/mL (≈ 1.3 µM)
- MIC (P. aeruginosa ATCC 27853; ATCC27853, read-out: MIC 100%, Study LGC299544, 100%): 0.5 µg/mL (≈ 1.3 µM)
- MIC (P. aeruginosa ATCC 27853; ATCC27853, read-out: MIC 100%, Study LGC301026, 100%): 0.25 µg/mL (≈ 0.652 µM)
- MIC (P. aeruginosa ATCC 27853; ATCC27853, read-out: MIC 100%, Study LGC308175, 100%): 0.25 µg/mL (≈ 0.652 µM)
- MIC (P. aeruginosa ATCC 27853; ATCC27853, read-out: MIC 100%, Study ROC003, 100%): 0.5 µg/mL (≈ 1.3 µM)
- MIC (P. aeruginosa ATCC 27853; ATCC27853, read-out: MIC 100%, Study ROC004, 100%): 0.5 µg/mL (≈ 1.3 µM)
- MIC (P. aeruginosa ATCC 27853; ATCC27853, read-out: MIC 100%, Study ROC005, 100%): 0.5 µg/mL (≈ 1.3 µM)
- MIC (P. aeruginosa ATCC 27853; ATCC27853, read-out: MIC 100%, Study ROC006, 100%): 0.5 µg/mL (≈ 1.3 µM)
- MIC (P. aeruginosa ATCC 27853; ATCC27853, read-out: MIC 100%, Study ROC007, 100%): 0.5 µg/mL (≈ 1.3 µM)
- MIC (P. aeruginosa ATCC 27853; ATCC27853, read-out: MIC 100%, Study ROC008, 100%): 2 µg/mL (≈ 5.22 µM)
- MIC (P. aeruginosa ATCC 27853; ATCC27853, read-out: MIC 100%, Study ROC009, 100%): 0.25 µg/mL (≈ 0.652 µM)
- MIC (P. aeruginosa ATCC 27853; ATCC27853, read-out: MIC 100%, Study ROC010, 100%): 0.5 µg/mL (≈ 1.3 µM)
- MIC (P. aeruginosa ATCC 27853; ATCC27853, read-out: MIC 100%, Study ROC012, 100%): 0.12 µg/mL (≈ 0.313 µM)
- MIC (P. aeruginosa ATCC 27853; ATCC27853, read-out: MIC 100%, Study ROC013, 100%): 0.5 µg/mL (≈ 1.3 µM)
- MIC (E. coli ATCC 25922; ATCC25922): ≤ 0.06 µg/mL
- MIC (E. coli ATCC 25922; ATCC25922, read-out: MIC 100%): ≤ 0.06 µg/mL
- MIC 100% (E. coli ATCC 25922; Study LGC277937): ≤0.06 µg/mL
- MIC 100% (E. coli ATCC 25922; Study LGC279800): ≤0.06 µg/mL
- MIC 100% (E. coli ATCC 25922; Study LGC281440): ≤0.06 µg/mL
- MIC 100% (E. coli ATCC 25922; Study LGC282160): ≤0.06 µg/mL
- MIC 100% (E. coli ATCC 25922; Study LGC282623): ≤0.06 µg/mL
- MIC 100% (E. coli ATCC 25922; Study LGC283932): ≤0.06 µg/mL
- MIC 100% (E. coli ATCC 25922; Study LGC284200): ≤0.06 µg/mL
- MIC 100% (E. coli ATCC 25922; Study LGC284879): ≤0.06 µg/mL
- MIC 100% (E. coli ATCC 25922; Study LGC285582): ≤0.06 µg/mL
- MIC 100% (E. coli ATCC 25922; Study LGC286210): ≤0.06 µg/mL
- MIC 100% (E. coli ATCC 25922; Study LGC293598): ≤0.06 µg/mL
- MIC 100% (E. coli ATCC 25922; Study LGC294355): ≤0.06 µg/mL
- MIC 100% (E. coli ATCC 25922; Study LGC295147): ≤0.06 µg/mL
- MIC 100% (E. coli ATCC 25922; Study LGC296813): ≤0.06 µg/mL
- MIC 100% (E. coli ATCC 25922; Study LGC299544): ≤0.06 µg/mL
- MIC 100% (E. coli ATCC 25922; Study LGC301026): ≤0.06 µg/mL
- MIC 100% (E. coli ATCC 25922; Study LGC308175): ≤0.06 µg/mL
- MIC 100% (E. coli ATCC 25922; Study ROC003): ≤0.06 µg/mL
- MIC 100% (E. coli ATCC 25922; Study ROC004): ≤0.06 µg/mL
- MIC 100% (E. coli ATCC 25922; Study ROC005): ≤0.06 µg/mL
- MIC 100% (E. coli ATCC 25922; Study ROC006): ≤0.06 µg/mL
- MIC 100% (E. coli ATCC 25922; Study ROC007): ≤0.06 µg/mL
- MIC 100% (E. coli ATCC 25922; Study ROC008): ≤0.06 µg/mL
- MIC 100% (E. coli ATCC 25922; Study ROC009): ≤0.06 µg/mL
- MIC 100% (E. coli ATCC 25922; Study ROC010): ≤0.06 µg/mL
- MIC 100% (E. coli ATCC 25922; Study ROC013): ≤0.06 µg/mL

Structure (SMILES): CN1C(=O)[C@H](CCCCN)NC(=O)[C@H](CCCN)NCc2cccnc2Sc2cccc(-c3ccc(C(=O)O)cc3)c2CNC(=O)[C@@H]1Cc1c[nH]c2ccccc12 [zosurabalpin]
- inhibition at 10 µM (GSK-3A): -1%
- inhibition at 10 µM (Phosphodiesterase 3B): 2%
- inhibition at 10 µM (ZAP70 kinase): 1%
- IC50 (hERG): > 20 µM
- hERG IC20 (hERG): > 10 µM
- RO7223280 MIC 100% (P. aeruginosa ATCC 27853; Study LGC296813): >64 µg/mL
- RO7223280 MIC 100% (P. aeruginosa ATCC 27853; Study LGC299544): >64 µg/mL
- RO7223280 MIC 100% (P. aeruginosa ATCC 27853; Study LGC308175): >64 µg/mL
- MIC (P. aeruginosa ATCC 27853; ATCC27853): > 64 µg/mL
- RO7223280 MIC 100% (E. coli ATCC 25922; Study LGC296813): >64 µg/mL
- RO7223280 MIC 100% (E. coli ATCC 25922; Study LGC299544): >64 µg/mL
- RO7223280 MIC 100% (E. coli ATCC 25922; Study LGC308175): >64 µg/mL
- MIC (E. coli ATCC 25922; ATCC25922): > 64 µg/mL
